The conditions of data set [1]: high doses (0.17% of diet or 10 mg/kg), McCarty (2007); cited from earlier work.
In data set [2] the test system is luciferase reporter plasmid. Put plainly: Light-activated VfAU1-LOV transcription factor, luciferase reporter. The settings on record: blue light ~3 μW/mm^2, FIG. 4b. The format is cell-based. An excerpt: The plasmid pGAVPO (Y. Yang, East China University of Science and Technology) contains a Gal4 DNA binding domain, NcVV-LOV and a transactivation domain (Wang et al. 2012) (FIG. 4b). Blue-light activation of pGAVPO was detected with the luciferase reporter plasmid applied in MAPK pathways assays (see above; this plasmid contains multiple UAS sequences). VfAU1-LOV was amplified by PCR and oligonucleotides 24 and 25 (SEQ ID NO: 38 and 39, respectively) and inserted in pGAVPO using BglII and EcoRI restriction enzymes. Constructs was verified by DNA sequencing. Luciferase activation experiments were performed as described above except that mFGFR1 plasmids were replaced with 50 ng pGAVPO per well.

Data on 2 molecules can be found in patent publication US20160326219A1, “OPTICALLY ACTIVATED RECEPTORS” (IST AUSTRIA (INSTITUTE OF SCIENCE AND TECHNOLOGY AUSTRIA), priority 2013, published 2016).

For the molecule Phycocyanobilin [PCB], the “Toxicity in living animals” value in data set [1] is reported as “non-toxic”.

B1: GA-VfAU1-LOV-P: VfAU1-LOV incorporated into pGAVPO transcription factor (Gal4 DNA binding domain, transactivation domain) (protein)
chain: MKLLSSIEQACDICRLKKLKCSKEKPKCAKCLKNNWECRYSPKTKRSPLTRAHLTEVESRLERLEPDYSLVKALQMAQQNFVITDASLPDNPIVYASRGFLTLTGYSLDQILGRNCRFLQGPETDPRAVDKIRNAITKGVDTSVCLLNYRQDGTTFWNLFFVAGLRDSKGNIVNYVGVQSKVSEDYAKLLVNEQNIEYKGVRTSNMLRRK
modifications: left off: large carriers
As for B1, the “Light activated transcriptional response (dimerization-dependent transcription factor)” value in data set [2] is “light activated transcriptional responses”.
